Reference: patent publication US20220257550A1, “REDUCING THE VIRAL ACTIVITY OF ELAFIBRANOR WITH RIBOFLAVIN OR DHA” (priority 2019, published 2022)

System: Phage T4
Assay: Phage T4 titer in liquid culture of E. coli followed by plaque assay on agar plates (PFU)
Format: cell-based, bacteriophage T4 / E. coli 613
Conditions: compounds 0.02 mg/ml (each), vs untreated control, FIG. 1
Description: (§1) The number of phage particles (PFU) is given. Experiment were done in triplicate.
as §1
Nutritional Products Ltd (Kaiseraugst, Switzerland). All stock solutions were in 20 mg/ml DMSO. All compounds were used at a final concentration of 0.02 mg/ml.
E. coli was grown in liquid LB (lysogeny broth) medium. […] The number of phage particles (PFU) was determined by plating on agar.

| SMILES | phage T4 PFU (number of phage particles) (MOI of 0.01, 3 hours at 30° C.) | phage T4 PFU (number of phage particles) (MOI of 100/1) |
| --- | --- | --- |
| Cc1cc2nc3c(=O)[nH]c(=O)nc-3n(C[C@H](O)[C@H](O)[C@H](O)CO)c2cc1C [Riboflavin] | decreased | decreased |
| CSc1ccc(C(=O)/C=C/c2cc(C)c(OC(C)(C)C(=O)O)c(C)c2)cc1 [elafibranor, Elafibranor] | significantly increased | significantly increased |
